The record followed here is US9006450B2 (Boehringer Ingelheim International GmbH, priority 2010, dated 2015).

In the test the target is T1, human ACC2 (Homo sapiens, UniProt O00763).
T1 construct: made in house; host or cells: insect cells (baculoviral expression system)
T1 sequence (O00763 129-2458 limits assumed): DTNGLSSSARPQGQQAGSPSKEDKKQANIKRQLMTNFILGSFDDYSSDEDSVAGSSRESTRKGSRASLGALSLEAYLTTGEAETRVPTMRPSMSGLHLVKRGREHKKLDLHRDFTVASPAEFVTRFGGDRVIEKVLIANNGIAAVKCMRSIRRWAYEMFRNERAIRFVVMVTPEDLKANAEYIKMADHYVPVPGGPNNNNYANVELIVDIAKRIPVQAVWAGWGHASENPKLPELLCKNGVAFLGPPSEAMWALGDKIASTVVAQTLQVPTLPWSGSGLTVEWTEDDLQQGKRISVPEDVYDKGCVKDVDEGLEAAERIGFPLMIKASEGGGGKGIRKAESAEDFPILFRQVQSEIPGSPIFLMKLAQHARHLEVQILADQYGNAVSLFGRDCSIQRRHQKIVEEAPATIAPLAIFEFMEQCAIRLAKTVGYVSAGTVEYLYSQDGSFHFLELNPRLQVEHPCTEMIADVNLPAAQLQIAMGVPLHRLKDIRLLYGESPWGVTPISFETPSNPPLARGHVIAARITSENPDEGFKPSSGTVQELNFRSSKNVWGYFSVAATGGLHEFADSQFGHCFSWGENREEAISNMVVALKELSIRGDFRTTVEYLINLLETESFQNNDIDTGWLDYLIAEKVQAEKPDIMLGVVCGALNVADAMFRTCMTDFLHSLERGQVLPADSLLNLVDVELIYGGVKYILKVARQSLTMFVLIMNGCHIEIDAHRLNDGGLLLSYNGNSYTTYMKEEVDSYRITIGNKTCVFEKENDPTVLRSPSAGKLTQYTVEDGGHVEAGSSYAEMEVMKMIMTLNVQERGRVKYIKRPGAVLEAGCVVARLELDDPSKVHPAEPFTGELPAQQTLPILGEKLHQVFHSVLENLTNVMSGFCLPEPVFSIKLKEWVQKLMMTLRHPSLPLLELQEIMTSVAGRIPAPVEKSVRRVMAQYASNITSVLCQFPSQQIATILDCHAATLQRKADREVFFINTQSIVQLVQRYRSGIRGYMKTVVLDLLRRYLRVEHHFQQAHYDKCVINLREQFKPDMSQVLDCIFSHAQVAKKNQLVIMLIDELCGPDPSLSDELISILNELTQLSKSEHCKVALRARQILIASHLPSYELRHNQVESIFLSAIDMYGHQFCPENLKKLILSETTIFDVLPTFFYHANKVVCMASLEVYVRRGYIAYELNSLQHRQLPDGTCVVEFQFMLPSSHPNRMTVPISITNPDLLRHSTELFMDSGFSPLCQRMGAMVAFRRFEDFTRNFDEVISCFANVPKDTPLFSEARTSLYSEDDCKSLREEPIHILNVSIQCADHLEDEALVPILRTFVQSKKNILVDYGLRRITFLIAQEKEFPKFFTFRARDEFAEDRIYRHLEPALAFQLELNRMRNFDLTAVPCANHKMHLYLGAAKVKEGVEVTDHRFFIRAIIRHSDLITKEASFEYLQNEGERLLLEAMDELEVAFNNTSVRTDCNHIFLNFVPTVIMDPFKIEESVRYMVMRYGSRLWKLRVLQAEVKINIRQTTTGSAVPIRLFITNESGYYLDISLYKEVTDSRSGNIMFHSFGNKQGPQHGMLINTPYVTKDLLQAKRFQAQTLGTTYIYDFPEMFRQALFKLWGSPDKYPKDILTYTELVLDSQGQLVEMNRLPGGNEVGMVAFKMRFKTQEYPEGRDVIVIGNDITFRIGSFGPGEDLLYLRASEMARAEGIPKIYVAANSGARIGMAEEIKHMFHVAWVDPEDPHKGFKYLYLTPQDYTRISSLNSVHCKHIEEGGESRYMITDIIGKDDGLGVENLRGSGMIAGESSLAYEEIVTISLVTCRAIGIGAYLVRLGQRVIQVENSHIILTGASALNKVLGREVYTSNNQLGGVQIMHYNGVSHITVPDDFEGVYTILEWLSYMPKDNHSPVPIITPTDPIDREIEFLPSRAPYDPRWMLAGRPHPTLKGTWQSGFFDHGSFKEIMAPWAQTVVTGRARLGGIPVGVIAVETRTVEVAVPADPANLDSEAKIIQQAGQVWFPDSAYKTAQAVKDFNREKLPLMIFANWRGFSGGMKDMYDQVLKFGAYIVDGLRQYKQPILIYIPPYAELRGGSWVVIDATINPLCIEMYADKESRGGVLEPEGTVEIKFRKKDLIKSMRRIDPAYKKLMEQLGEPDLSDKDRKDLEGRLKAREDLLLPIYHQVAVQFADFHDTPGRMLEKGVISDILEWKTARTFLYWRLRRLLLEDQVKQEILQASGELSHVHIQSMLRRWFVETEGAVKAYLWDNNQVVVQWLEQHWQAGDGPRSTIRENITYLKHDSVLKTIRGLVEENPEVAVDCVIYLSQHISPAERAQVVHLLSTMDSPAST
As to the kind of experiment: ACC2 assay, spectrophotometric 384 well assay (NADH-linked, coupled lactate dehydrogenase/pyruvate kinase). The format is biochemical. The note with it: ACC2 assay, hACC2 construct lacking 128 N-terminal amino acids, 25° C., 340 nm; read-out: IC50. As to the method:
Spectrophotometric 384 Well Assay
Malonyl CoA formation by acetyl CoA carboxylases is stoichometrically linked to the consumption of ATP. ACC2 activity is measured in a NADH-linked kinetic method measuring ADP generated during the ACC reaction using a coupled lactate dehydrogenase/pyruvate kinase reaction.
For biological testing, a human ACC2 construct which lacks the 128 amino acids at the N-terminus for increased solubility (nt 385-6966 in Genbank entry AJ575592) is cloned. The protein is then expressed in insect cells using a baculoviral expression system. Protein purification is performed by anion exchange.
All compounds are dissolved in dimethyl sulfoxide (DMSO) to a concentration of 10 mM.
Assay reactions are then carried out in 384-well plates, with hACC2 in an appropriate dilution and at final assay concentrations (f.c.) of 100 mM Tris (pH 7.5), 10 mM trisodium citrate, 25 mM KHCO3, 10 mM MgCl2, 0.5 mg/mL BSA, 3.75 mM reduced L-glutathione, 15 U/mL lactate dehydrogenase, 0.5 mM phosphoenolpyruvate, 15 U/mL pyruvate kinase, compounds at different concentrations at final DMSO concentrations of 1%.
The enzymatic reaction is then started by addition of a mixture of NADH, acetyl Coenzyme A (both 200 μM f.c.) and ATP (500 uM f.c.). The decrease of the optical density (slope S) is then determined at 25° C. at a wavelength of 340 nm over 15 minutes in a spectrophotometric reader.
Each assay microtiter plate contains wells with vehicle instead of compound as controls for the non-inhibited enzyme (100% CTL; ‘HIGH’) and wells without acetyl-CoA as controls for non-specific NADH degradation (0% CTL; ‘LOW’).
The slope S is used for calculation of % CTL=(S(compound)−S('LOW'))/(S('HIGH')−S('LOW'))*100. Compounds will give values between 100% CTL (no inhibition) and 0% CTL (complete inhibition).
For IC50 value determination, the sample slope in the presence of the test compound after subtraction of the low controls (S(compound)−S('LOW')) are used.
An IC50 value is derived from the compound slopes at different dosages after subtraction of the low controls (S(compound)−S('LOW')) by non-linear regression curve fitting (equation y=(A+((B−A)/(1+((C/x)^D))))).
The IC50 is the concentration needed to halve the response being measured. Consider `CC(=O)N[C@@H](C)c1ccc(C2CCN(c3nc(C)cs3)CC2)cc1` [Example 5.22], for which the half-inhibitory concentration (IC50) stood at 2300 nM.
In the case of `CCCc1cnc(N2CCC(c3ccc([C@H](C)NC(C)=O)cc3)CC2)nc1` [Example 4.35], the IC50 worked out at 510 nM.
As to `COCCOc1cccc(N2CCC(c3ccc([C@H](C)NC(C)=O)cc3)CC2)c1` [Example 9.7], the IC50 stood at 560 nM.
For `CC(=O)N[C@@H](C)c1ccc(C2CCN(c3cc(NCc4ccco4)ncn3)CC2)cc1` [Example 11.59], the IC50 was found to be 6100 nM.
Regarding `COc1ccccc1-c1cnc(N2CCC(c3ccc([C@H](C)NC(C)=O)cc3)CC2)nc1` [Example 10.4], the IC50 stood at 2000 nM.
With `CC(=O)N[C@@H](C)c1ccc(C2CCN(c3ncc([N+](=O)[O-])cn3)CC2)cc1` [Example 4.39], the half-inhibitory concentration (IC50) came to 1900 nM.
Take `C[C@H](NC(=O)C1CC1)c1ccc(C2CCN(c3cccc(OCC4CC4)c3)CC2)cc1` [Example 1.77]: the IC50 is 900 nM.
With `CCOC(=O)c1cc(C#N)c(N2CCC(c3ccc([C@H](C)NC(C)=O)cc3)CC2)nc1C(F)(F)F` [Example 5.15] the figure was 4900 nM.
For the compound `CC(=O)N[C@@H](C)c1ccc(C2CCN(c3ccc(OCC(C)(C)C)cc3)CC2)cc1` [Example 9.21], the IC50 is 100 nM.
As for `CCOc1ccc(N2CCC(c3ccc([C@H](C)NC(=O)c4cn[nH]c4)cc3)CC2)cc1` [Example 6.10], the figure is 250 nM.
As for `CC(=O)N[C@@H](C)c1ccc(C2CCN(c3ncc(C(=O)NC4CCNCC4)cn3)CC2)cc1` [Example 18.79], the figure is 16700 nM; as for `CC(C)Oc1ncnc(N2CCC(c3ccc([C@H](C)NC(=O)C4CC4)cc3)CC2)c1F` [Example 11.130], 370 nM.
With `C[C@H](NC(=O)C1CC1)c1ccc(C2CCN(c3ncc(-c4ccccc4)cn3)CC2)cc1` [Example 10.105] the figure was 100 nM.
`COc1cncc(N2CCC(c3ccc([C@H](C)NC(C)=O)cc3)CC2)c1` [Example 15.9]: the IC50 was 19900 nM.
In the case of `CC(=O)N[C@@H](C)c1ccc(C2CCN(c3nc(C(C)C)no3)CC2)cc1` [Example 25.1, (S)—N-(1-{4-[1-(3-Isopropyl-[1,2,4]oxadiazol-5-yl)-piperidin-4-yl]-phenyl}-ethyl)-acetamide], the IC50 was 2700 nM.
As to `COc1cccc(-c2cnc(N3CCC(c4ccc([C@H](C)NC(C)=O)cc4)CC3)nc2)c1` [Example 10.3], the half-maximal inhibitory concentration (IC50) is 130 nM.
In the case of `CC(=O)N[C@@H](C)c1ccc(C2CCN(c3ccc(C4(S(C)(=O)=O)CC4)cn3)CC2)cc1` [Example 5.8], the IC50 amounted to 19200 nM.
For the compound `CC(=O)N[C@@H](C)c1ccc(C2CCN(c3ccc(OC4CCC4)nc3)CC2)cc1` [Example 1.62], the IC50 is 200 nM.
Consider `CC(=O)N[C@@H](C)c1ccc(C2CCN(c3ncc(C(=O)NCCC#N)cn3)CC2)cc1` [Example 18.80], for which the IC50 was 27200 nM.
As for `CC(=O)N[C@@H](C)c1ccc(C2CCN(c3ccnc(OCC4(C)CC4)c3)CC2)cc1` [Example 19.15], the figure is 80 nM; as for `CCOc1ccc(N2CCC(c3ccc([C@H](C)NC(=O)c4ccco4)cc3)CC2)cc1` [Example 6.4], 2100 nM; as for `CC(=O)N[C@@H](C)c1ccc(C2CCN(c3cccc(OCc4ccccc4)c3)CC2)cc1` [Example 9.17], 550 nM.
As for `CC(=O)N[C@@H](C)c1ccc(C2CCN(c3ccnc(N4CCC4)n3)CC2)cc1` [Example 11.98], the IC50 amounted to 660 nM.
As for `CCOc1ccc(N2CCC(c3ccc([C@H](C)NC(=O)CO)cc3)CC2)cc1` [Example 6.48], the figure is 3700 nM; as for `CC(=O)N[C@@H](C)c1ccc(C2CCN(c3ccc(OC4CCCC4)c(C)c3)CC2)cc1` [Example 8.35], 490 nM.
Turning to `CC(=O)N[C@@H](C)c1ccc(C2CCN(c3cc(NCc4ccccn4)ncn3)CC2)cc1` [Example 11.67], the IC50 stood at 26400 nM.
For `COCCCOc1cccc(N2CCC(c3ccc([C@H](C)NC(C)=O)cc3)CC2)c1` [Example 9.9], the half-inhibitory concentration (IC50) stood at 210 nM.
With `CCCOc1cnc(N2CCC(c3ccc([C@H](C)NC(C)=O)cc3)CC2)c(F)c1` [Example 1.105] the figure was 240 nM; with `CC(=O)N[C@@H](C)c1ccc(C2CCN(c3ccc(OCCC(F)(F)F)cc3)CC2)cc1` [Example 1.165], 100 nM; with `C[C@H](NC(=O)C1CC1)c1ccc(C2CCN(c3ncc(-c4ccoc4)cn3)CC2)cc1` [Example 10.104], 170 nM.
As for `CCOc1ccc(N2CCC(c3ccc([C@H](C)NC(C)=O)cc3)CC2)cn1` [Example 1.4], the IC50 worked out at 320 nM.
Take `COc1ccc(N2CCC(c3ccc([C@H](C)NC(C)=O)cc3)CC2)cn1` [Example 1.53]: the IC50 is 820 nM.
As to `CCOc1ccc(N2CCC(c3ccc([C@H](C)NC(=O)CC(=O)O)cc3)CC2)cc1` [Example 32.1, (S)-3-(1-(4-(1-(4-Ethoxyphenyl)piperidin-4-yl)phenyl)ethylamino)-3-oxopropanoic Acid], the IC50 was determined as 7200 nM.
With `C[C@H](NC(=O)C1CC1)c1ccc(C2CCN(c3ncnc(Cl)c3F)CC2)cc1` [Example 5.37], the IC50 stood at 2900 nM.
As for `CCCC(C)Oc1cccc(N2CCC(c3ccc([C@H](C)NC(C)=O)cc3)CC2)c1` (some centres unmarked) [Example 9.2], the concentration for half-maximal inhibition (IC50) came to 300 nM.
Consider `CC(=O)N[C@@H](C)c1ccc(C2CCN(c3ncc(-c4ccc5nccnc5c4)cn3)CC2)cc1` [Example 10.73], for which the half-maximal inhibitory concentration (IC50) turned out to be 180 nM.
Take `CC(=O)N[C@@H](C)c1ccc(C2CCN(c3ncc(C4=CCOCC4)cn3)CC2)cc1` [Example 10.84]: the IC50 worked out at 1300 nM.
As for `CCOc1ccc(N2CCC(c3ccc([C@H](C)NC(=O)c4cncs4)cc3)CC2)cc1` [Example 6.11], the IC50 came out at 340 nM.
For `CC(=O)N[C@@H](C)c1ccc(C2CCN(c3ccc4c(n3)C(=O)CC4)CC2)cc1` [Example 5.27], the IC50 stood at 5200 nM.
Regarding `CC(=O)N[C@@H](C)c1ccc(C2CCN(c3ncc(C(=O)N4CCCCC4)cn3)CC2)cc1` [Example 18.11], the IC50 stood at 740 nM.
`CC(=O)N[C@@H](C)c1ccc(C2CCN(c3ncc(-c4ccc(C#N)nc4)cn3)CC2)cc1` [Example 10.82]: the IC50 was 150 nM.
Turning to `CC(=O)N[C@@H](C)c1ccc(C2CCN(c3ccc4nc(C)oc4c3)CC2)cc1` [Example 15.15], the IC50 was found to be 990 nM.
As for `COc1ccc(-c2cnc(N3CCC(c4ccc([C@H](C)NC(C)=O)cc4)CC3)nc2)cc1C` [Example 10.30], the 50% inhibitory concentration (IC50) was 130 nM.
As to `CC(=O)N[C@@H](C)c1ccc(C2CCN(c3ccnc(N(C)C)n3)CC2)cc1` [Example 11.104], the half-maximal inhibitory concentration (IC50) turned out to be 600 nM.
Turning to `CC(=O)N[C@@H](C)c1ccc(C2CCN(c3ncc(C(=O)N4CC5CCCC5C4)cn3)CC2)cc1` (some centres unmarked) [Example 18.20], the half-inhibitory concentration (IC50) was 530 nM.
With `CC(=O)N[C@@H](C)c1ccc(C2CCN(c3ncc(-c4ccc5ncccc5c4)cn3)CC2)cc1` [Example 10.70] the figure was 230 nM; with `CC(=O)N[C@@H](C)c1ccc(C2CCN(c3ncc(Br)cc3F)CC2)cc1` [Example 5.38], 570 nM; with `CC(=O)N[C@@H](C)c1ccc(C2CCN(c3ncnc4ccccc34)CC2)cc1` [Example 4.7], 950 nM.
On to `CCCOc1ccc(N2CCC(c3ccc([C@H](C)NC(=O)N(C)C)cc3)CC2)c(F)c1` [Example 1.86], for which the IC50 amounted to 210 nM.
`CC(=O)N[C@@H](C)c1ccc(C2CCN(c3ccc(F)c(F)c3)CC2)cc1` [Example 1.163]: the IC50 amounted to 670 nM.
